Reference: ChEMBL document CHEMBL3137381, “MMV Box Onchocerca lienalis screening set”

Key:
Assay type in all cases: functional
[1] = system: Onchocerca lienalis; test: MMV: Percent motility assay at a compound concentration of 7.8e-7 M. Activity score legend: 3: Active, 2: Moderately active; 1: Inactive, 0: Toxic; settings: at 0.78 µM
[2] = system: Onchocerca lienalis; test: MMV: Percent motility assay at a compound concentration of 1.25e-5 M. Activity score legend: 3: Active, 2: Moderately active; 1: Inactive, 0: Toxic; settings: at 12.5 µM
[3] = system: Onchocerca lienalis; test: MMV: Percent motility assay at a compound concentration of 1.9e-7 M. Activity score legend: 3: Active, 2: Moderately active; 1: Inactive, 0: Toxic; settings: at 0.19 µM
[4] = system: Onchocerca lienalis; test: MMV: Percent motility assay at a compound concentration of 3.1e-6 M. Activity score legend: 3: Active, 2: Moderately active; 1: Inactive, 0: Toxic; settings: at 3.1 µM

| SMILES | Motility [1] [%] | Motility [2] [%] | Motility [3] [%] | Motility [4] [%] |
| --- | --- | --- | --- | --- |
| CCN1CCCC1CNc1[nH]cnc2c3cc(Cl)ccc3nc1-2 (stereo not given) | 100 | 100 | 100 | 100 |
| C[n+]1c2ccccc2nc2ccc(NCCO)cc21 | 100 | 100 | 100 | 100 |
| CCN(CC)CCNc1ncnc2c1[nH]c1ccc(Cl)cc12 | 100 | 100 | 100 | 100 |
| CCOC(=O)c1cnc2ccc(CC)cc2c1O | 100 | 100 | 100 | 100 |
| Cc1ccc(-c2cc3c(nn2)-c2ccccc2C3=O)cc1 | 100 | 100 | 100 | 100 |
| Cc1ccc(Nc2nc(-c3ccccn3)cs2)cc1 | 100 | 100 | 100 | 100 |
| COc1ccc(-n2ccnc2SCC(=O)Nc2cc(C)ccc2C)c(OC)c1 | 100 | 100 | 100 | 100 |
| CCN1CCN(Cc2ccc(NC(=O)c3cc4ccc5cccnc5c4[nH]3)cc2)CC1 | 100 | 100 | 100 | 100 |
| CCC(C)NCC(O)(c1ccc(Cl)cc1)c1ccc(Cl)cc1 (stereo not given) | 100 | 100 | 100 | 100 |
| CCOc1cc2c(cc1OCC)C(c1cc(OC)c(O)cc1Cl)NCC2 (stereo not given) | 100 | 100 | 100 | 100 |
| COCCNC(=O)c1ccc(OC2CCN(Cc3ccc(F)c(F)c3)CC2)c(Cl)c1 | 100 | 46.6 | 100 | 100 |
| COc1cccc(C=Cc2nc(=O)c3ccccc3o2)c1OC | 100 | 100 | 100 | 100 |
| COc1ccc(C(=O)Nc2nonc2-c2ccc(OC)c(OC)c2)cc1Cl | 100 | 100 | 100 | 100 |
| COCCN(C(=O)Cc1cccs1)C(C(=O)NCc1ccc(OC)cc1)c1ccc(C(C)C)cc1 (stereo not given) | 100 | 46.6 | 100 | 100 |
| COc1ccc2c(c1)OC(O)(C(F)(F)C(F)(F)F)CC2=O (stereo not given) | 100 | 100 | 100 | 100 |
| FC(F)(F)c1cccc(CNC2CCN(CCc3ccccc3)CC2)c1 | 100 | 100 | 100 | 100 |
| Oc1ccc(Cl)cc1CNc1nc2ccccc2[nH]1 | 100 | 66.6 | 100 | 100 |
| CCOc1cc(Cl)c(C(C)NC(=O)c2ccccc2)cc1OCC (stereo not given) | 100 | 100 | 100 | 100 |
| Cc1ccc(-c2cc3nc4c(c(O)n3n2)CCCC4)cc1 | 100 | 100 | 100 | 100 |
| O=C(Nc1ccc(Cl)cc1)N1CCN(c2ccc3nncn3n2)CC1 | 100 | 100 | 100 | 100 |

| SMILES | Motility [1] [%] | Motility [2] [%] | Motility [3] [%] | Motility [4] [%] |
| --- | --- | --- | --- | --- |
| c1ccc2cc3c(Nc4ccc(N5CCOCC5)cc4)ccnc3cc2c1 | 100 | 100 | 100 | 100 |
| COc1ccccc1NC1=C(N2CCCCC2)C(=O)c2ccccc2C1=O | 100 | 100 | 100 | 100 |
| CCOC(=O)c1cn(CC)c2cc(N3CCCCC3)c(F)cc2c1=O | 100 | 100 | 100 | 100 |
| CCCc1cc(O)c2c3c(c(=O)oc2c1)CN(C)CC3 | 100 | 66.6 | 100 | 100 |
| Cc1cc(NC(=O)C2c3ccccc3C(=O)N(CC(C)C)C2c2cccs2)no1 (stereo not given) | 100 | 100 | 100 | 100 |
| CCn1c(SCC(=O)Nc2cc(C(F)(F)F)ccc2Cl)nc2ccccc2c1=O | 100 | 100 | 100 | 100 |
| Cc1ccc(Cn2c(N3CCC(C(=O)NCc4cccs4)CC3)nc3ccccc32)cc1 | 100 | 100 | 100 | 100 |
| O=C(Nc1ccc(Cl)cc1C(=O)Nc1ccncc1)c1ccc(Cl)cc1Cl | 100 | 100 | 100 | 100 |
| CCOc1ccc(-c2nonc2NC(=O)c2cccc(C)c2)cc1OCC | 100 | 100 | 100 | 100 |
| CC(C)(C)CC(C)(C)NCC(O)COc1ccc2c(c1)CCC2.Cl (stereo not given) | 100 | 100 | 100 | 100 |
| CCCCc1ccc(NS(=O)(=O)c2cc3c4c(c2)CCN4C(=O)CC3)cc1 | 100 | 100 | 100 | 100 |
| COc1ccc(-c2nc3cc(Cc4ccc5[nH]c(-c6ccc(OC)cc6)nc5c4)ccc3[nH]2)cc1 | 100 | 80 | 100 | 100 |
| CCOC(=O)c1ccc2nc(-c3ccccc3)cc(O)c2c1 | 100 | 100 | 100 | 100 |
| Cc1cc(Nc2ccc(Cl)cc2)n2nc(C(F)(F)F)nc2n1 | 100 | 100 | 100 | 100 |
| CCCCCCOC(=O)C1=C(C)NC(=O)NC1c1ccccc1F (stereo not given) | 100 | 6 | 100 | 100 |
| COc1ccc(C2Sc3ccccc3N=C3C2=C(O)c2ccccc23)cc1 (stereo not given) | 100 | 100 | 100 | 100 |
| Cc1ccc(N2C3c4ccccc4N(S(=O)(=O)c4ccc(C)cc4)C2c2ccccc2N3S(=O)(=O)c2ccc(C)cc2)cc1 | 100 | 100 | 100 | 100 |
| Cc1ccc(Nc2nc(NCCO)c3ccccc3n2)cc1C | 100 | 33.33 | 100 | 100 |
| CC1CCCCN1CCCNC(=O)c1ccc2c(c1)sc1nc(-c3ccc(F)cc3)cn12 (stereo not given) | 100 | 80 | 100 | 100 |
| COc1ccc(NC(=O)C2c3ccccc3C(=O)N(CC(C)C)C2c2cccs2)cc1 (stereo not given) | 100 | 100 | 100 | 100 |
